In the assay the test system is spontaneously hypertensive rats. Description: Antihypertensive activity: systolic blood pressure measured indirectly on conscious SHR after a single oral dose. Type of assay: in vivo. The following applies: male; for Hours after Administration (time of lowest systolic blood pressure) / Systolic Blood Pressure, Lowest value after Administration: 0.05 mmole/kg aqueous solution, once force-fed into the stomach; for ΔBlood Pressure (systolic): 0.05 mmole/kg once orally, lowest value minus value before administration. The method, then: The antihypertensive activity of the peptide derivatives as prepared above was determined.
As subject animals there were used 5 SHR which had been trained enough and been confirmed to be hypertensive spontaneously hypertensive rats (male, body weight of 400-440 g),per sample
As an instrument for measuring the blood pressure there was used Programmed Electro-Sphygmomanometer PE-300 (Narco Co., U.S.A.), and the blood pressure was indirectly measured on conscious rats.
An aqueous solution of a sample (0.05 mmole/kg) was once force-fed into the stomach by means of a peroal probe. As a control, deionized water was fed to the same animals as above.

The record followed here is US4971993A, “Dipeptide derivatives and antihypertensive drugs containing them” (Ajinomoto Co., Inc., priority 1985, dated 1990).

Peptide text beside a SMILES is read from it. * marks the point of attachment. Mts = Cc1cc(C)c(S(=O)(=O)*)c(C)c1; Tos = Cc1ccc(S(=O)(=O)*)cc1

“2-benzenesulfonylamino isobutyryl-L-proline sodium salt [Example 21]”: the “Hours after Administration (time of lowest systolic blood pressure)” value (“Hours after Administration” below) worked out at 7 h; the “Systolic Blood Pressure, Lowest value after Administration” value (from here on “Systolic Blood Pressure, Lowest value”) is 193 mmHg; the “ΔBlood Pressure (systolic)” value was -17 mmHg.

As for `C[C@H](NS(=O)(=O)c1ccccc1)C(=O)N1CCC[C@H]1C(=O)O` [Example 1, N-benzenesulfonyl-L-alanyl-L-proline], the “Hours after Administration” value amounted to 8 h; the “Systolic Blood Pressure, Lowest value” value is given as 185 mmHg; the “ΔBlood Pressure (systolic)” value was -28 mmHg.

On to `Cc1cc(C)c(S(=O)(=O)N[C@@H](C)C(=O)N2CCC[C@H]2C(=O)O)c(C)c1` [Example 2, N-mesitylenesulfonyl-L-alanyl-L-proline] (Mts-Ala-Pro-OH), for which the “Hours after Administration” value is 7 h; the “Systolic Blood Pressure, Lowest value” value worked out at 191 mmHg; the “ΔBlood Pressure (systolic)” value was -11 mmHg.

As for `Cc1ccc(S(=O)(=O)N[C@@H](C)C(=O)N2CCC[C@H]2C(=O)O)cc1` [Example 3, N-p-toluenesulfonyl-L-alanyl-L-proline] (Tos-Ala-Pro-OH), the “Hours after Administration” value stood at 7 h; the “Systolic Blood Pressure, Lowest value” value turned out to be 194 mmHg; the “ΔBlood Pressure (systolic)” value is listed as -12 mmHg.

Take `C[C@H](NS(=O)(=O)c1cccc2ccccc12)C(=O)N1CCC[C@H]1C(=O)O` [Example 4, N-α-naphthalenesulfonyl-L-alanyl-L-proline]: the “Hours after Administration” value came to 7 h; the “Systolic Blood Pressure, Lowest value” value is listed as 185 mmHg; the “ΔBlood Pressure (systolic)” value was -13 mmHg.

On to `C[C@H](NS(=O)(=O)c1ccccc1[N+](=O)[O-])C(=O)N1CCC[C@H]1C(=O)O` [Example 5, N-α-nitrobenzenesulfonyl-L-alanyl-L-proline], for which the “Hours after Administration” value was 7 h; the “Systolic Blood Pressure, Lowest value” value is given as 193 mmHg; the “ΔBlood Pressure (systolic)” value is on record as -18 mmHg.

For `C[C@H](NS(=O)(=O)c1ccccc1N)C(=O)N1CCC[C@H]1C(=O)O` [Example 6, N-o-aminobenzenesulfonyl-L-alanyl-L-proline], the “Hours after Administration” value was 7 h; the “Systolic Blood Pressure, Lowest value” value is 197 mmHg; the “ΔBlood Pressure (systolic)” value was -35 mmHg.

For `C[C@H](NS(=O)(=O)Cc1ccccc1)C(=O)N1CCC[C@H]1C(=O)O` [Example 7, N-benzylsulfonyl-L-alanyl-L-proline], the “Hours after Administration” value was 7 h; the “Systolic Blood Pressure, Lowest value” value is recorded as 194 mmHg; the “ΔBlood Pressure (systolic)” value is -21 mmHg.

`C[C@H](NS(=O)(=O)c1ccccc1C(=O)O)C(=O)N1CCC[C@H]1C(=O)O` [Example 8, N-o-carboxybenzenesulfonyl-L-alanyl-L-proline]: the “Hours after Administration” value is 7 h; the “Systolic Blood Pressure, Lowest value” value stood at 194 mmHg; the “ΔBlood Pressure (systolic)” value was -9 mmHg.

Regarding `O=C(O)[C@@H]1CCCN1C(=O)CNS(=O)(=O)c1ccccc1` [Example 10, N-benzenesulfonylglycyl-L-proline], the “Hours after Administration” value came to 7 h; the “Systolic Blood Pressure, Lowest value” value is recorded as 201 mmHg; the “ΔBlood Pressure (systolic)” value is -9 mmHg.

In the case of `CC(C)[C@H](NS(=O)(=O)c1ccccc1)C(=O)N1CCC[C@H]1C(=O)O` [Example 11, N-benzenesulfonyl-L-valyl-L-proline], the “Hours after Administration” value amounted to 7 h; the “Systolic Blood Pressure, Lowest value” value worked out at 203 mmHg; the “ΔBlood Pressure (systolic)” value is recorded as -11 mmHg.

As for `CC[C@H](C)[C@H](NS(=O)(=O)c1ccccc1)C(=O)N1CCC[C@H]1C(=O)O` [Example 12, N-benzenesulfonyl-L-isoleucyl-L-proline], the “Hours after Administration” value is 7 h; the “Systolic Blood Pressure, Lowest value” value was found to be 191 mmHg; the “ΔBlood Pressure (systolic)” value is listed as -21 mmHg.

Consider `O=C(O)[C@@H]1CCCN1C(=O)[C@@H](NS(=O)(=O)c1ccccc1)c1ccccc1` [Example 13, N-benzenesulfonyl-L-phenylglycyl-L-proline], for which the “Hours after Administration” value amounted to 7 h; the “Systolic Blood Pressure, Lowest value” value came out at 204 mmHg; the “ΔBlood Pressure (systolic)” value was -8 mmHg.

`O=C(O)[C@@H]1CCCN1C(=O)[C@H](Cc1ccccc1)NS(=O)(=O)c1ccccc1` [Example 14, N-benzenesulfonyl-L-phenylalanyl-L-proline]: the “Hours after Administration” value is 7 h; the “Systolic Blood Pressure, Lowest value” value was determined as 201 mmHg; the “ΔBlood Pressure (systolic)” value is -18 mmHg.

For `CSCC[C@H](NS(=O)(=O)c1ccccc1)C(=O)N1CCC[C@H]1C(=O)O` [Example 15, N-benzenesulfonyl-L-methionyl-L-proline], the “Hours after Administration” value was 4 h; the “Systolic Blood Pressure, Lowest value” value is listed as 206 mmHg; the “ΔBlood Pressure (systolic)” value is listed as -13 mmHg.

Regarding `O=C(O)[C@@H]1CCCN1C(=O)[C@@H]1CCCN1S(=O)(=O)c1ccccc1` [Example 16, N-benzenesulfonyl-L-prolyl-L-proline], the “Hours after Administration” value came out at 7 h; the “Systolic Blood Pressure, Lowest value” value amounted to 195 mmHg; the “ΔBlood Pressure (systolic)” value was -21 mmHg.

Turning to `O=C(O)[C@@H]1CCCN1C(=O)[C@H](CO)NS(=O)(=O)c1ccccc1` [Example 17, N-benzenesulfonyl-L-seryl-L-proline], the “Hours after Administration” value stood at 7 h; the “Systolic Blood Pressure, Lowest value” value was 194 mmHg; the “ΔBlood Pressure (systolic)” value is reported as -22 mmHg.

With `O=C(O)CC[C@H](NS(=O)(=O)c1ccccc1)C(=O)N1CCC[C@H]1C(=O)O` [Example 18, N-benzenesulfonyl-L-glutamyl-L-proline], the “Hours after Administration” value is 7 h; the “Systolic Blood Pressure, Lowest value” value is given as 189 mmHg; the “ΔBlood Pressure (systolic)” value is listed as -14 mmHg.

For the compound `NCCCC[C@H](NS(=O)(=O)c1ccccc1)C(=O)N1CCC[C@H]1C(=O)O` [Example 19, N^α -benzenesulfonyl-L-lysyl-L-proline], the “Hours after Administration” value is 7 h; the “Systolic Blood Pressure, Lowest value” value is 191 mmHg; the “ΔBlood Pressure (systolic)” value was -28 mmHg.

With “N-ethanesulfonyl-L-alanyl-L-proline potassium salt [Example 9]”, the “Hours after Administration” value was found to be 7 h; the “Systolic Blood Pressure, Lowest value” value is recorded as 213 mmHg; the “ΔBlood Pressure (systolic)” value is -5 mmHg.
